According to US20110009351A1, “SCREENING ASSAY TO IDENTIFY CORRECTORS OF PROTEIN TRAFFICKING DEFECTS” (Traffick Therepeutics Inc., priority 2007, published 2011):
“Also recorded” adds a separate entry of the source. Counter-ions that a name gives are not always drawn.

Key:
F508del CFTR = target: T1, F508del CFTR (Homo sapiens, UniProt P13569, DEL508-508); assay: YFP fluorescence quenching functional assay (iodide influx), HEK293 cells with F508del CFTR and halide sensitive YFP; type: cell-based; settings: 10 μM, 24 h
T1 construct: expressed in transfected cells; host or cells: HEK293 Griptite cells stably expressing F508del CFTR, transiently transfected with halide-sensitive eYFP
Outline: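 HEK293 Griptite cells stably expressing F508del CFTR, transiently transfected with halide-sensitive eYFP, treated 24 h with 10 μM compound in triplicate, then stimulated 20 min with 25 μM forskolin, 45 μM IBMX and 50 μM genistein. YFP quench after 50 mM iodide imaged 15 times over 40 s on 150-300 cells/well.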

ΔF508-CFTR [1] = target: T2, ΔF508-CFTR (Mus musculus, UniProt P26361, DEL508-508); assay: salivary secretion assay in ΔF508-CFTR mice; type: in vivo
T2 construct: from tissue; host or cells: ileal mucosa of homozygous ΔF508 mice (A11 ex vivo, A12 after gavage); salivary secretion in the living mouse (A13)
Protocol: The procedure followed those recently described by Best & Quinton (Best and Quinton, 2005). Homozygous Δ508-CFTR mice (CFTR^tm1 Eur) and wild-type mice of the same strain were 10-12 weeks old and weighed 20-25 g. They were fed once a day by gavage with saline containing glafenine (50 mg/kg) or vehicle alone (0.1% DMSO) for 2 days. The mice were anaesthetized with ketamine and diazepam on the day of the experiment, then pretreated with a subcutaneous injection of 1 mM atropine into the left cheek. Small strips of Whatman filter paper were placed inside the previously injected cheek for ˜4 min to absorb any salivary secretions. A solution containing 100 μM isoprenaline and 1 mM atropine was then injected into the left cheek at the same site to induce secretion at time zero and the filter paper was replaced every minute for 30 minutes. Each piece of filter paper was immediately placed and sealed in a pre-weighed vial and the time of removal was recorded. The rate of salivary secretion per min and total amount were normalized to the mass of the mouse in grams.

[2] = clinical use; cited from earlier work
ΔF508-CFTR [3] = target: ΔF508-CFTR (Homo sapiens, UniProt P13569, DEL508-508); assay: short-circuit current (Isc) across CFBE41o− monolayers in Ussing chambers; type: cell-based; set-up: expressed in transfected cells; host or cells: CFBE41o- (ΔF508/ΔF508) transduced with ΔF508-CFTR, TranzVector lentivirus, provided by J. P. Clancy; settings: 10 μM, 24 h
Protocol: Short-circuit current (Isc) was measured across monolayers in modified Ussing chambers. 1×10^6 CFBE41o^− cells were seeded onto 12-mm fibronectin-coated Snapwell inserts (Corning Incorporated, Life Sciences, New-York, N.Y.) and the apical medium was removed after 24 h. Transepithelial resistance was monitored using an EVOM epithelial voltohmmeter (World Precision Instruments, Sarasota, Fla.) and cells were used when the transepithelial resistance was 300-400 ohms·cm^2. In some experiments, F508del-CFBE41o^− monolayers were incubated at 29° C. or treated with glafenine at 37° C. for 24 h before being mounted in EasyMount chambers and voltage clamped using a VCCMC6 multichannel current-voltage clamp (Physiologic Instruments, San Diego, Calif.). The apical membrane conductance was functionally isolated by permeabilizing the basolateral membrane with 200 μg/ml nystatin and imposing an apical-to-basolateral Cl^− gradient. For these experiments the basolateral bathing solution contained (in mM) 1.2 NaCl, 115 Na-gluconate, 25 NaHCO3, 1.2 MgCl2, 4 CaCl2, 2.4, KH2PO4, 1.24 K2HPO4, 10 glucose (pH 7.4 with NaOH). The CaCl2 concentration was increased to 4 mM to compensate for the chelation of calcium by gluconate. The apical bathing solution contained (in mM) 115 NaCl, 25 NaHCO3, 1.2 MgCl2, 1.2 CaCl2, 2.4 KH2PO4, 1.24 K2HPO4, 10 mannitol (pH 7.4 with NaOH). […]

T1 sequence (P13569 with tags, fused parts or gaps DEL508-508): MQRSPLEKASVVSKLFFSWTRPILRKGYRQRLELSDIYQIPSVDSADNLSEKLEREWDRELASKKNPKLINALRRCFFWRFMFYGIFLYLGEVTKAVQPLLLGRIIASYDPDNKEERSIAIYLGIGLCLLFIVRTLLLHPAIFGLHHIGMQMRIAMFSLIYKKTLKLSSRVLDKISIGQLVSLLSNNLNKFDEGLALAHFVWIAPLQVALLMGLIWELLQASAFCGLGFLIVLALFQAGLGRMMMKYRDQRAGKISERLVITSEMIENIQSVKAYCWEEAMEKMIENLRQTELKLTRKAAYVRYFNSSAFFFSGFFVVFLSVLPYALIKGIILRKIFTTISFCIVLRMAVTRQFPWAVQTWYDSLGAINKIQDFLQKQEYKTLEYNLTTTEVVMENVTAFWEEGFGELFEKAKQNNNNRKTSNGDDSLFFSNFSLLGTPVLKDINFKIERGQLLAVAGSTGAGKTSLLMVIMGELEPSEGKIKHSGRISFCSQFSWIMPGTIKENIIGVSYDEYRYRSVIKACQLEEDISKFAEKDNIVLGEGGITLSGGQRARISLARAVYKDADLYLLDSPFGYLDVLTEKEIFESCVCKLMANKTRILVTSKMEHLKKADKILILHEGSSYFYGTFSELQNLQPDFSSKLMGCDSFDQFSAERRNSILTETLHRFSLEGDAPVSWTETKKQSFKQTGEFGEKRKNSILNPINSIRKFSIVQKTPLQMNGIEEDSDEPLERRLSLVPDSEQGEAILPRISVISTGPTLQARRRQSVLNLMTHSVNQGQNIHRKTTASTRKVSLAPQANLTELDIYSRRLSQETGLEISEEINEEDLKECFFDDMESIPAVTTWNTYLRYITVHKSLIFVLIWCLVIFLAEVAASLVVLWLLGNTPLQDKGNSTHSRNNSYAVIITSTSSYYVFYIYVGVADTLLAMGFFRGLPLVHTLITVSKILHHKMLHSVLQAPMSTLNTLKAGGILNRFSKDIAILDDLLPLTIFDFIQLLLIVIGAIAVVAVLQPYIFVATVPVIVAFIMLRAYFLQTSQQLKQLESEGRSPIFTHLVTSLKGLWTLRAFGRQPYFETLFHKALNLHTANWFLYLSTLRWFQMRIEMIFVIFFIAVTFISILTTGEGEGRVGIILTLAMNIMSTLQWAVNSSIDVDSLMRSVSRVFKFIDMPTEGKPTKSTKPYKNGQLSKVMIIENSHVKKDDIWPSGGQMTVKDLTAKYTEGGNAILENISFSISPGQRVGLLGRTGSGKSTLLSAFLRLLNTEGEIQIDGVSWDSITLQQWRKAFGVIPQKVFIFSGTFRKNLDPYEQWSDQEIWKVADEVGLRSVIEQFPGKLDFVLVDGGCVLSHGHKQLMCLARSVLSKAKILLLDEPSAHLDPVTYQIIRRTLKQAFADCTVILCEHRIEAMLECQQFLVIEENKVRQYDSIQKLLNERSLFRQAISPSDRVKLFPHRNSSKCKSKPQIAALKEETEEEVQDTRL
T2 sequence (P26361 with tags, fused parts or gaps DEL508-508): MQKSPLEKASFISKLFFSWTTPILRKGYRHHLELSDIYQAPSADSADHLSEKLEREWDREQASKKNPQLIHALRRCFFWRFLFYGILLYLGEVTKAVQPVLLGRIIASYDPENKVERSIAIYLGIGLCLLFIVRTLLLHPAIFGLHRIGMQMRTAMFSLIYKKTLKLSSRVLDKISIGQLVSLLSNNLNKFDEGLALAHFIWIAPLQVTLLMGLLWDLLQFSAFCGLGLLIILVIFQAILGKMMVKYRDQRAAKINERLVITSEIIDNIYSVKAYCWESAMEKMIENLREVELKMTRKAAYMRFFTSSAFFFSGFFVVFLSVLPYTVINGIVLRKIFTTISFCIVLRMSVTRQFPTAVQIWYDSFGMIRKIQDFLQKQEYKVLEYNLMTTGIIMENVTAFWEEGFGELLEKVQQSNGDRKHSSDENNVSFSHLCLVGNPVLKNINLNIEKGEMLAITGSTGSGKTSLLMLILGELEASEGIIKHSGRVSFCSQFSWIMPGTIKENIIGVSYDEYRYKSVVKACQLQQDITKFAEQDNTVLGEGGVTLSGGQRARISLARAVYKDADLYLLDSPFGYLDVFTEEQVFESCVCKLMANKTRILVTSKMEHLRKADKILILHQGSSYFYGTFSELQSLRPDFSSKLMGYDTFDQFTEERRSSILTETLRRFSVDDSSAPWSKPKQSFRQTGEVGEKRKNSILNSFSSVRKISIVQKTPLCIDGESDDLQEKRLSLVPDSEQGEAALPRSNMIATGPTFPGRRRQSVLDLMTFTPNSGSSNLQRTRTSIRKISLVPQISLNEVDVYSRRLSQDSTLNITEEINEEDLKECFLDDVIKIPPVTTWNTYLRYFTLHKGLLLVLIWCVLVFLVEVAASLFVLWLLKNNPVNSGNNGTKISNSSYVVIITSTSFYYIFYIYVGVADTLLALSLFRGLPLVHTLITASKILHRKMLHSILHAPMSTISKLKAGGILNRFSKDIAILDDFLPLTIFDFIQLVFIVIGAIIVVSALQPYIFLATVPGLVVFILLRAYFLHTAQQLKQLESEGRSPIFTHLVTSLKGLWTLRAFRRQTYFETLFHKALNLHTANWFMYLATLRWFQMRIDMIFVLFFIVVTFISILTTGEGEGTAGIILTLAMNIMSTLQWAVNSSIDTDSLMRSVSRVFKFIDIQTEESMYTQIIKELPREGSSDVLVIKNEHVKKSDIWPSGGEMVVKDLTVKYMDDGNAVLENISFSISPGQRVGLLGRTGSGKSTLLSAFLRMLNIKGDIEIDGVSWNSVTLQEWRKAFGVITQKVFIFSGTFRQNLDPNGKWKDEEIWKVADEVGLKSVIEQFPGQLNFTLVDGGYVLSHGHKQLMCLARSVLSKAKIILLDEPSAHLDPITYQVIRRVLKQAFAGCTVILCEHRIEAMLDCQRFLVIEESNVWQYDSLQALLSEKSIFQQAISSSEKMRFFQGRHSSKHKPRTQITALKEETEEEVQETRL
Chain of ΔF508-CFTR (Homo sapiens, UniProt P13569, DEL508-508) (P13569 with tags, fused parts or gaps DEL508-508): as the sequence (P13569 with tags, fused parts or gaps DEL508-508) above

## O=C(OCC(O)CO)c1ccccc1Nc1ccnc2cc(Cl)ccc12 (stereo not drawn) [Glafenine hydrochloride, 2-[(7-chloro-4-quinolinyl)amino]benzoic acid 2,3-dihydroxypropyl ester]
F508del CFTR
  functional correction in YFP quenching assay: test positive in each case; also recorded: enhanced the cAMP-stimulated iodide influx
F508del CFTR; HEK293, nc = 100% pc = 69.2, read-out: % YFP quench
  remaining activity at 10 µM: 80%
ΔF508-CFTR [1]; 50 mg glafenine per kg
  restored share of the total salivary response: 15%
ΔF508-CFTR [1]; 50 mg/kg by gavage, 2 days, isoprenaline with atropine, control CF mice 5%
  maximum rate of saliva production relative to WT mice: 15%
[2]
  concentration achieved clinically in plasma: 10 µM
ΔF508-CFTR [3]
  increase of forskolin+genistein-stimulated Isc compared with DMSO controls: about 2.5 fold
